Test results: patent US8071575B2, “Methods and compounds for the targeted delivery of agents to bone for interaction therewith” (priority 2007, dated 2011)
“Also recorded” adds a separate entry of the source.

Experiments:
OVX rats [1] = test: RatLaps ELISA for C-telopeptide fragments of collagen type I (CTX-I) in serum; assay type: in vivo, Sprague-Dawley female rats; conditions: Formula 125 at 1000 μg/kg, 17-ethinyl estradiol equimolar, alendronate 1.6 mg/kg
Description: RatLaps™ ELISA for C-Telopeptide Fragments of Collagen Type I (CTX-I). […] Bone resorption (CTX-I) was quantitatively assessed in rat serum using the commercially available RatLaps™ ELISA KIT from Nordic Bioscience Diagnostics A/S (Herlev, Denmark) as recommended by the manufacturer.

[2] = Hydroxyapatite (HA) Binding Assay; conditions: 10^−5 M analyte, 50 mM Tris-HCl pH 7.4, 1% DMSO; adjusted such that tetracycline = 100
Description: A Hydroxyapatite (HA) Binding Assay is used to determine whether compounds have an affinity for bone. Compounds of the presently-disclosed subject matter having a Bone Targeting Portion (RT) are studied using the HA Binding Assay. A 10^−3 M solution of each analyte was made in 100% dimethylsulfoxide (DMSO). A 100 fold dilution was then made to form a 10^−5 M solution in 50 mM Tris-HCl buffer, pH 7.4, 1% DMSO. Tetracycline was used as a reference analyte and approximately 50% was adsorbed to HA at the concentration of 10^−5 M. The HA slurry was 0.5 g/100 mL 50 mM Tris-HCl buffer, 1% DMSO.
For each analyte, two samples were prepared. For one sample, 1 mL of 10^−5 M analyte and 100 μL 50 mM Tris-HCl buffer, 1% DMSO was pipetted into a microcentrifuge tube. For the second sample, 1 mL of 10^−5 M analyte and 100 μL of the HA slurry was pipetted into a microcentrifuge tube. The samples were mixed gently by inversion for 4 minutes and then centrifuged at 12,000 g for 3 minutes to sediment the HA contained in those samples. The supernatant was transferred to another microcentrifuge tube.
An electronic spectral scan (ultraviolet-visible) from 220-520 nm was obtained for each analyte using a Varian Cary 300 Bio Scan. The blank was 50 mM Tris-HCl buffer, 1% DMSO. The wavelength of maximum absorbance (λmax) was determined, and the extinction coefficient (ε) was calculated using the Beer-Lambert Law.
The absorbance of the samples incubated with HA was measured at λmax, and the molar concentration of the analyte was then determined using the Beer-Lambert Law and the previously calculated extinction coefficient. The fraction adsorbed to HA for each sample was subsequently calculated.

OVX rats [3] = test: Uterine mass and uterine mass to body weight ratio in OVX rats; assay type: in vivo, Sprague-Dawley female rats; conditions: for uterine mass: present-tense example, no data or figure
Description: (§1) Animals. Six month old, bilaterally ovariectomized (OVX) or sham operated Sprague-Dawley female rats (Harlan Laboratories, Indianapolis, Ind.) were maintained at the University of Louisville Research Resources Center at 22° C. with a 12-h light/dark cycle and ad libitum access to tap water and rodent chow (Purina Laboratory Rodent Diet 5001). All animal procedures were approved by the Institutional Animal Care and Use Committee, which is certified by the American Association for Accreditation of Laboratory Animal Care.
(§2) In vivo experiments were conducted in order to investigate the efficacy of compounds of the presently-disclosed subject matter. In all of the experiments, OVX and sham operated rats were randomly divided into groups of 5-7 animals. In all of the studies experimental groups included: i) Sham-operated control (euthanized six weeks post surgery as a pretreatment control), ii) OVX control (euthanized six weeks post surgery as a pretreatment control), iii) Sham control receiving vehicle, iv) OVX control receiving vehicle, v) OVX receiving 17-ethinyl estradiol (equimolar concentration with a selected test compound), vi) OVX receiving alendronate (1.6 mg/kg), and vii) OVX receiving parathyroid hormone 1-34 (PTH) ([…]). 17-ethinyl estradiol (17 EE) is a free estrogenic agent known to be orally active, and can serve as an example of an anti-catabolic agent. Alendronate (Alen) is a bisphosphonate that is currently used to treat osteoporosis (e.g., Fosamax®, Merck & Co., Inc,), and can serve as an example of an anti-catabolic agent. Parathyroid hormone 1-34 (PTH) is an agent that can serve as an example of an anabolic agent. All compounds and vehicle (1% DMSO in corn oil) were administered three times per week orally by gavage except for PTH which was administered via a subcutaneous injection in a volume of 0.5 ml/kg body mass thrice per week. Compound administration was initiated 6 weeks following surgery and lasted for 6 weeks (18 doses total).
(§3) Compounds of the presently-disclosed subject matter were orally administered to OVX rats at various doses. As indicated above all BTE's were administered three times per week for 6 weeks.
(§4) Following 6 weeks of treatment, blood was obtained from each animal via cardiac puncture following an overnight fast and animals were subsequently euthanized via carbon dioxide asphyxiation. Blood was centrifuged immediately and the obtained serum samples were aliquoted and stored at −70° C. prior to analysis. Uteri were removed and fresh weights were obtained. Uterine masses were normalized to body mass at the end of the experiment. The left and right femora and left and right tibiae were subsequently collected from each animal, cleaned of soft tissue, and stored in saline at 4° C. prior to analysis.
Uterine Mass and Body Weight. […] Uterine mass can be used to as a measure of estrogenic effect occurring in a tissue outside the bone in response to treatment with a test compound or composition. Generally, a lower uterine mass can be associated with a decreased risk of adverse side effects associated with the test compound or composition. A ratio of uterine mass to body weight can be used to correct for any increase in uterine size attributable to the relative size of the individual animal. Body weight and/or uterine mass also serve as an indirect measures of toxicity of a test compound.

OVX rats [4] = test: Quantitative determination of lipid metabolism (total cholesterol, HDL, LDL) in rat serum; assay type: in vivo, Sprague-Dawley female rats
Description: as §1, §2, §4
Quantitative Determination of Lipid Metabolism (Total Cholesterol HDL, and LDL) in Rat Serum. Total cholesterol, high-density lipoprotein (HDL), and low-density lipoprotein (LDL) were quantitatively determined in the serum of rats in order to evaluate the extraosseous effects of estrogen treatment on lipid metabolism. Commercially available kits from Wako Diagnostics (Richmond, Va.) were used for the evaluations as recommended by the manufacturer.

OVX rats [5] = test: Femoral density via Archimedes' Principle (whole bone); assay type: in vivo, Sprague-Dawley female rats; conditions: for whole bone density and regional bone density: present-tense example, no data or figure
Description: as §1, §2, §3, §4
Femoral Density via Archimedes' Principle. Right femora were submerged in distilled water and fully hydrated under a vacuum for 1 hr. Subsequently, the mass of each hydrated femur was obtained in air and when submerged in water. Densities were determined using Archimedes' Principle according to the following formula: density=[mass of hydrated femur/(mass of hydrated femur−mass of hydrated femur submerged in water)]×density of distilled water at a given temperature (See Keenan, et al. Comparison of bone density measurement techniques: DXA and Archimedes' principle. J Bone Miner Res 1997; 12:1903-7.). The obtained density measurements were associated with whole bone.

OVX rats [6] = test: Volume fraction, ex vivo micro-computed tomography of tibia; assay type: in vivo, Sprague-Dawley female rats; conditions: for volume fraction (BV/TV) of trabecular, cortical and whole bone tissue: present-tense example, no data or figure; for bone density from three-dimensional micro-CT images / trabecular volume fraction: OVX rats, oral 10, 100, or 1000 μg/kg; for trabecular volume fraction: ex vivo micro-CT
Description: as §1, §2, §3, §4
Volume Fraction—Ex vivo micro-computed tomography (μCT). Volume fraction is a representative value for the amount of bone that occupies a given volume or space. High resolution image data were collected using a customized micro-CT system (ACTIS 150/225 system, BIR Inc., Lincolnshire, Ill.). The metaphysis of each right tibia was scanned over a three millimeter range and three-dimensional images were reconstructed. Data were subsequently processed to reveal the volume fraction (BV/TV) occupied by trabecular (cancellous) bone tissue, cortical bone tissue, and whole bone tissue. The resulting data provides information regarding the density of whole bone, cortical bone, and trabecular bone.

OVX rats [7] = test: Bone mechanical competence indentation test; assay type: in vivo, Sprague-Dawley female rats; conditions: for bone strength (indentation test): present-tense example, no data or figure
Description: as §1, §2, §3, §4
Bone Mechanical Competence Indentation Test. After sacrifice, the left tibiae were trimmed to expose the cancellous bone of the proximal tibial metaphysis and an indentation test was performed by advancing a flat-tipped cylindrical post (1.5 mm diameter) axially into the cut surface to measure the compressive strength of the cancellous bone structure.

ICR Swiss mice = test: Stimulation of periosteal bone formation in a mouse calvarial injection model; assay type: in vivo; conditions: present-tense example, no data or figure
Description: Stimulation of Periosteal Bone Formation in a Mouse Calvarial Injection Model. The anabolic (bone formation) of compounds of the presently-disclosed subject matter are evaluated in the mouse calvarial injection model. Briefly, 4-week-old ICR Swiss mice are injected subcutaneously over the surface of the calvariae with compounds of the presently-disclosed subject matter at concentrations of 0, 1, 3, and 10 mg/kg/day for 5 days (twice a day). Microtubule inhibitor TN-16 (5 mg/kg/day for 2 days, twice a day) are used as a positive control. Mice are sacrificed two weeks after the injections are completed. Dissected calvarial samples are fixed in 10% phosphate-buffered formalin for 2 days, decalcified in 10% EDTA for 2 weeks and then embedded in paraffin. Histological sections are cut and stained with H&E and orange G. New woven bone formation (new bone area) is quantified by histomorphometry using the OsteoMeasure system (OsteoMetrics Inc., Atlanta, Ga.).

OVX rats [8] = test: Regional femoral density via Archimedes' Principle; assay type: in vivo, Sprague-Dawley female rats; conditions: oral 10, 100, or 1000 μg/kg, three times per week for 6 weeks
Description: as §1, §2, §3
Following 6 weeks of treatment, blood was obtained from each animal via cardiac puncture following an overnight fast and animals were subsequently euthanized via carbon dioxide asphyxiation. […]
Regional Femoral Density via Archimedes' Principle. […] Briefly, each femur was measured with a Cen-Tech Digital Caliper and a cut was made from each end at 20% of the length of the femur plus half the width of the blade. Subsequently, the bone marrow was washed out of the femoral diaphysis and the Archimedes density for each of the three femoral regions was determined as described above.

[9] = present-tense example, no data or figure

lipid metabolism (total cholesterol, HDL, LDL in serum) (OVX rats [4]; [9]) | Structure (SMILES) | production of CTX-I (bone resorption marker) in serum (OVX rats [1]) | Binding Index (binding to hydroxyapatite) [2] | uterine mass (OVX rats [3]) | whole bone density and regional bone density (OVX rats [5]) | volume fraction (BV/TV) of trabecular, cortical and whole bone tissue (OVX rats [6]) | bone strength (indentation test) (OVX rats [7]) | new bone area (calvarial injection model) (ICR Swiss mice) | lipid metabolism (total cholesterol, HDL, LDL in serum) (OVX rats [4]; rat, in vivo) | whole bone density (right femora) (OVX rats [5]; OVX rats, oral 10, 100, or 1000 μg/kg, three times per week for 6 weeks) | regional bone density (left femur) (OVX rats [8]) | bone density from three-dimensional micro-CT images (OVX rats [6]) | trabecular volume fraction (OVX rats [6]) | bone strength (tibial indentation test) (OVX rats [7]; OVX rats, oral 10, 100, or 1000 μg/kg) | ratio of uterine mass to body weight (OVX rats [3]; OVX rats, oral 10, 100, or 1000 μg/kg, compared to animals treated with 17-ethinyl estradiol)
 | C#C[C@]1(O)CC[C@H]2[C@@H]3CCc4cc(O)ccc4[C@H]3CC[C@@]21C [17-ethinyl estradiol] | descrease the production of CTX-1 to sham levels |  |  |  |  |  |  |  |  |  |  |  |  | 
limited or no effect | COc1ccc(NC(=O)CCC(=O)Nc2nnc(S(N)(=O)=O)s2)c(O)c1C(N)=O [Formula 35] |  | 20 | limited or no effect | increase bone density | increase bone density | increase bone strength | increase new bone area |  |  |  |  |  |  | 
 | COc1ccc(NC(=O)COCCOCCOCCNC(=O)CCO[C@@H]2CCC3C4CCc5cc(O)ccc5C4CCC32C)c(O)c1C(N)=O (stereo partly drawn) [Formula 124] |  | 100 |  |  |  |  | increase new bone area | limited or no effect | in the same ranges as those animals receiving 17-ethinyl estradiol (17 EE), Alendronate (Alen), or Parathyroid hormone 1-34 (PTH) | in the same ranges as those animals receiving 17-ethinyl estradiol (17 EE), Alendronate (Alen), or Parathyroid hormone 1-34 (PTH) | increase in bone density | in the same ranges as those animals receiving 17-ethinyl estradiol (17 EE), Alendronate (Alen), or Parathyroid hormone 1-34 (PTH) | dose-responsive increase in bone strength, relative to the OVX animals | 
 | CC12CCC3c4ccc(O)cc4CCC3C1CC[C@H]2OCCC(=O)NCCOCCOCC(=O)Nc1ccc(OCc2ccccc2)c(C(N)=O)c1O (stereo partly drawn) [Formula 125] | do not inhibit production of CTX-I | 160 |  |  |  | increase bone strength | increase new bone area | limited or no effect |  | increased regional bone densities, as compared to the OVX animals; also recorded: increased regional bone densities, as compared to the Sham animals | increase in bone density | increased, as compared to OVX animals |  | lower
limited or no effect | COc1ccc(NC(=O)COCCOCCNC(=O)COc2ccc(-c3coc4cc(O)cc(O)c4c3=O)cc2)c(O)c1C(N)=O [Formula 128] |  |  | limited or no effect | increase bone density | increase bone density | increase bone strength | increase new bone area |  |  |  |  |  |  | 
 | NCCCC(O)(P(=O)(O)O)P(=O)(O)O [alendronate] | descrease the production of CTX-1 to sham levels |  |  |  |  |  |  |  |  |  |  |  |  | 

Structure (SMILES) | lipid metabolism (total cholesterol, HDL, LDL in serum) (OVX rats [4]; [9]) | production of CTX-I (bone resorption marker) in serum (OVX rats [1]) | Binding Index (binding to hydroxyapatite) [2] | uterine mass (OVX rats [3]) | whole bone density and regional bone density (OVX rats [5]) | volume fraction (BV/TV) of trabecular, cortical and whole bone tissue (OVX rats [6]) | bone strength (indentation test) (OVX rats [7]) | new bone area (calvarial injection model) (ICR Swiss mice) | lipid metabolism (total cholesterol, HDL, LDL in serum) (OVX rats [4]; rat, in vivo) | whole bone density (right femora) (OVX rats [5]; OVX rats, oral 10, 100, or 1000 μg/kg, three times per week for 6 weeks) | regional bone density (left femur) (OVX rats [8]) | bone density from three-dimensional micro-CT images (OVX rats [6]) | trabecular volume fraction (OVX rats [6]) | bone strength (tibial indentation test) (OVX rats [7]; OVX rats, oral 10, 100, or 1000 μg/kg) | ratio of uterine mass to body weight (OVX rats [3]; OVX rats, oral 10, 100, or 1000 μg/kg, compared to animals treated with 17-ethinyl estradiol)
COc1ccc(NC(=O)COCCOCCNC(=O)CCCC(CO[N+](=O)[O-])O[N+](=O)[O-])c(O)c1C(N)=O (stereo not drawn) [Formula 130] | limited or no effect |  | 130 | limited or no effect | increase bone density | increase bone density | increase bone strength | increase new bone area |  |  |  |  |  |  | 
